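How tested: cells in 96-well plates exposed to compound for 48 hours at five concentrations. TGI: concentration producing complete growth inhibition.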
Legend:
Assay in all cases: growth of human tumour cells (NCI), 48 h
[1] = system: DMS 114 small cell lung
[2] = system: SNB-75 CNS
[3] = system: SNB-78 CNS
[4] = system: MALME-3M melanoma
[5] = system: HL-60(TB) leukemia
[6] = system: UACC-62 melanoma
[7] = system: HCC-2998 colon
[8] = system: KM20L2 colon
[9] = system: CAKI-1 renal
[10] = system: A498 renal
[11] = system: M19-MEL melanoma

Molecule `Nc1ccccc1SC(/C=C/NNC1=NC(c2ccccc2)C(c2ccccc2)=NN1)c1ccccc1` (stereo unspecified) has a TGI [1] of 30.1 µM, a TGI [2] of 17.8 µM and a TGI [3] of 44.3 µM. For the same molecule, the TGI [4] was 30.1 µM, the TGI [5] was 13.1 µM and the TGI [6] was 24.1 µM. The TGI [7] was 30.5 µM, the TGI [8] was 44.9 µM and the TGI [9] was 26.4 µM. The TGI [10] was 36.8 µM and the TGI [11] was 25 µM.

From PubChem BioAssay (NCI)
